Experiments:
southern crabgrass [1] = assay: Test Example 4: herbicidal effect by soil treatment (Table 19, symbol F); assay type: in vivo, southern crabgrass (Digitaria ciliaris); conditions: amount of applied herbicide 320 g/ha
How it was run: (§1)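 In this soil treatment, the formulated compound reached the seeds only through the soil: seeds were buried about 1.5 cm deep in sterilized diluvial soil, then the diluted emulsion was sprayed over the surface. After three weeks at 25° C. to 30° C. in a greenhouse, effects were graded on criteria from an earlier test.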

windgrass [2] = assay: Test Example 5: herbicidal effect by foliage application, plastic box (Table 20, symbol L); assay type: in vivo, windgrass (Apera spica-venti); conditions: foliage application, 320 g/ha, evaluated three weeks after application
How it was run: (§2)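 Plants were sown into sterilized diluvial soil under about 1.5 cm cover and kept in a greenhouse at 25° C. to 30° C. Fourteen days on, foliage received an even spray of the diluted emulsion. Herbicidal or crop effect was judged three weeks afterwards.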

lambsquarters [3] = assay: Test Example 4: herbicidal effect by soil treatment (Table 19, symbol O); assay type: in vivo, lambsquarters (Chenopodium album); conditions: amount of applied herbicide 320 g/ha
How it was run: as §1

Italian ryegrass [4] = assay: Test Example 5: herbicidal effect by foliage application, plastic box (Table 20, symbol K); assay type: in vivo, Italian ryegrass (Lolium multiflorum); conditions: foliage application, 320 g/ha, evaluated three weeks after application
How it was run: as §2

lambsquarters [5] = assay: Test Example 5: herbicidal effect by foliage application, plastic box (Table 20, symbol O); assay type: in vivo, lambsquarters (Chenopodium album); conditions: foliage application, 320 g/ha, evaluated three weeks after application
How it was run: as §2

windgrass [6] = assay: Test Example 4: herbicidal effect by soil treatment (Table 19, symbol L); assay type: in vivo, windgrass (Apera spica-venti); conditions: amount of applied herbicide 320 g/ha
How it was run: as §1

false cleavers [7] = assay: Test Example 4: herbicidal effect by soil treatment (Table 19, symbol Q); assay type: in vivo, false cleavers (Galium spurium); conditions: amount of applied herbicide 320 g/ha
How it was run: as §1

barnyard grass [8] = assay: Test Example 5: herbicidal effect by foliage application, plastic box (Table 20, symbol H); assay type: in vivo, barnyard grass (Echinochloa crus-galli); conditions: foliage application, 320 g/ha, evaluated three weeks after application
How it was run: as §2

blackgrass [9] = assay: Test Example 5: herbicidal effect by foliage application, plastic box (Table 20, symbol J); assay type: in vivo, blackgrass (Alopecurus myosuroides); conditions: foliage application, 320 g/ha, evaluated three weeks after application
How it was run: as §2

rice flat sedge = assay: Test Example 3: herbicidal effect by foliage application, Wagner pot (Table 18, symbol E); assay type: in vivo, rice flat sedge (Cyperus iria); conditions: amount of applied herbicide 320 g/ha
How it was run: (§3)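 Plants were sown in alluvial soil held under 0.1–0.5 cm standing water and grown 14 days in a greenhouse at 25–30 °C. An emulsifiable formulation, water-diluted to the set dose, was then sprayed onto the foliage, and effects were scored three weeks later using previously defined criteria.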

wild oat [10] = assay: Test Example 4: herbicidal effect by soil treatment (Table 19, symbol I); assay type: in vivo, wild oat (Avena fatua); conditions: amount of applied herbicide 320 g/ha
How it was run: as §1

velvetleaf [11] = assay: Test Example 5: herbicidal effect by foliage application, plastic box (Table 20, symbol M); assay type: in vivo, velvetleaf (Abutilon theophrasti); conditions: foliage application, 320 g/ha, evaluated three weeks after application
How it was run: as §2

Italian ryegrass [12] = assay: Test Example 4: herbicidal effect by soil treatment (Table 19, symbol K); assay type: in vivo, Italian ryegrass (Lolium multiflorum); conditions: amount of applied herbicide 320 g/ha
How it was run: as §1

velvetleaf [13] = assay: Test Example 4: herbicidal effect by soil treatment (Table 19, symbol M); assay type: in vivo, velvetleaf (Abutilon theophrasti); conditions: amount of applied herbicide 320 g/ha
How it was run: as §1

barnyard grass [14] = assay: Test Example 3: herbicidal effect by foliage application, Wagner pot (Table 18, symbol H); assay type: in vivo, barnyard grass (Echinochloa crus-galli); conditions: amount of applied herbicide 320 g/ha
How it was run: as §3

Chinese sprangletop = assay: Test Example 3: herbicidal effect by foliage application, Wagner pot (Table 18, symbol D); assay type: in vivo, chinese sprangletop (Leptochloa chinensis); conditions: amount of applied herbicide 320 g/ha
How it was run: as §3

false cleavers [15] = assay: Test Example 5: herbicidal effect by foliage application, plastic box (Table 20, symbol Q); assay type: in vivo, false cleavers (Galium spurium); conditions: foliage application, 320 g/ha, evaluated three weeks after application
How it was run: as §2

chickweed [16] = assay: Test Example 4: herbicidal effect by soil treatment (Table 19, symbol P); assay type: in vivo, common chickweed (Stellaria media); conditions: amount of applied herbicide 320 g/ha
How it was run: as §1

southern crabgrass [17] = assay: Test Example 5: herbicidal effect by foliage application, plastic box (Table 20, symbol F); assay type: in vivo, southern crabgrass (Digitaria ciliaris); conditions: foliage application, 320 g/ha, evaluated three weeks after application
How it was run: as §2

wild oat [18] = assay: Test Example 5: herbicidal effect by foliage application, plastic box (Table 20, symbol I); assay type: in vivo, wild oat (Avena fatua); conditions: foliage application, 320 g/ha, evaluated three weeks after application
How it was run: as §2

persian speedwell [19] = assay: Test Example 5: herbicidal effect by foliage application, plastic box (Table 20, symbol R); assay type: in vivo, Persian speedwell (Veronica persica); conditions: foliage application, 320 g/ha, evaluated three weeks after application
How it was run: as §2

barnyard grass [20] = assay: Test Example 4: herbicidal effect by soil treatment (Table 19, symbol H); assay type: in vivo, barnyard grass (Echinochloa crus-galli); conditions: amount of applied herbicide 320 g/ha
How it was run: as §1

chickweed [21] = assay: Test Example 5: herbicidal effect by foliage application, plastic box (Table 20, symbol P); assay type: in vivo, common chickweed (Stellaria media); conditions: foliage application, 320 g/ha, evaluated three weeks after application
How it was run: as §2

blackgrass [22] = assay: Test Example 4: herbicidal effect by soil treatment (Table 19, symbol J); assay type: in vivo, blackgrass (Alopecurus myosuroides); conditions: amount of applied herbicide 320 g/ha
How it was run: as §1

persian speedwell [23] = assay: Test Example 4: herbicidal effect by soil treatment (Table 19, symbol R); assay type: in vivo, Persian speedwell (Veronica persica); conditions: amount of applied herbicide 320 g/ha
How it was run: as §1

green foxtail = assay: Test Example 5: herbicidal effect by foliage application, plastic box (Table 20, symbol G); assay type: in vivo, green foxtail (Setaria viridis); conditions: foliage application, 320 g/ha, evaluated three weeks after application
How it was run: as §2

redroot pigweed = assay: Test Example 5: herbicidal effect by foliage application, plastic box (Table 20, symbol N); assay type: in vivo, redroot pigweed (Amaranthus retroflexus); conditions: foliage application, 320 g/ha, evaluated three weeks after application
How it was run: as §2

COc1cc(F)ccc1-c1sc2ccc(C)cc2c1-c1c(O)c(C)nn(C)c1=O [2-148]
F: southern crabgrass, herbicidal effect rating (southern crabgrass [1]): 3 (Herbicidal rate of 40% or more and less than 70%) | herbicidal effect on L: windgrass (criteria 0-5) (windgrass [2]): 3 (Herbicidal rate of 40% or more and less than 70%) | O: lambsquarters, herbicidal effect rating (lambsquarters [3]): 5 (Herbicidal rate of 90% or more (almost completely withered)) | herbicidal effect on K: Italian ryegrass (criteria 0-5) (Italian ryegrass [4]): 4 (Herbicidal rate of 70% or more and less than 90%) | herbicidal effect on O: lambsquarters (criteria 0-5) (lambsquarters [5]): 4 (Herbicidal rate of 70% or more and less than 90%) | L: windgrass, herbicidal effect rating (windgrass [6]): 0 (Herbicidal rate of 5% or less (almost no effect)) | Q: false cleavers, herbicidal effect rating (false cleavers [7]): 5 (Herbicidal rate of 90% or more (almost completely withered)) | herbicidal effect on H: barnyard grass (criteria 0-5) (barnyard grass [8]): 5 (Herbicidal rate of 90% or more (almost completely withered)) | herbicidal effect on J: blackgrass (criteria 0-5) (blackgrass [9]): 4 (Herbicidal rate of 70% or more and less than 90%) | herbicidal effect on E: rice flat sedge (rice flat sedge): 5 (Herbicidal rate of 90% or more (almost completely withered)) | I: wild oat, herbicidal effect rating (wild oat [10]): 0 (Herbicidal rate of 5% or less (almost no effect)) | herbicidal effect on M: velvetleaf (criteria 0-5) (velvetleaf [11]): 4 (Herbicidal rate of 70% or more and less than 90%) | K: Italian ryegrass, herbicidal effect rating (Italian ryegrass [12]): 1 (Herbicidal rate of 5% or more and less than 20%) | M: velvetleaf, herbicidal effect rating (velvetleaf [13]): 3 (Herbicidal rate of 40% or more and less than 70%) | herbicidal effect on H: barnyard grass (barnyard grass [14]): 5 (Herbicidal rate of 90% or more (almost completely withered)) | herbicidal effect on D: Chinese sprangletop (Chinese sprangletop): 3 (Herbicidal rate of 40% or more and less than 70%) | herbicidal effect on Q: false cleavers (criteria 0-5) (false cleavers [15]): 5 (Herbicidal rate of 90% or more (almost completely withered)) | P: chickweed, herbicidal effect rating (chickweed [16]): 5 (Herbicidal rate of 90% or more (almost completely withered)) | herbicidal effect on F: southern crabgrass (criteria 0-5) (southern crabgrass [17]): 5 (Herbicidal rate of 90% or more (almost completely withered)) | herbicidal effect on I: wild oat (criteria 0-5) (wild oat [18]): 3 (Herbicidal rate of 40% or more and less than 70%) | herbicidal effect on R: persian speedwell (criteria 0-5) (persian speedwell [19]): 5 (Herbicidal rate of 90% or more (almost completely withered)) | H: barnyard grass, herbicidal effect rating (barnyard grass [20]): 4 (Herbicidal rate of 70% or more and less than 90%) | herbicidal effect on P: chickweed (criteria 0-5) (chickweed [21]): 5 (Herbicidal rate of 90% or more (almost completely withered)) | J: blackgrass, herbicidal effect rating (blackgrass [22]): 3 (Herbicidal rate of 40% or more and less than 70%) | R: persian speedwell, herbicidal effect rating (persian speedwell [23]): 5 (Herbicidal rate of 90% or more (almost completely withered)) | herbicidal effect on G: green foxtail (criteria 0-5) (green foxtail): 5 (Herbicidal rate of 90% or more (almost completely withered)) | herbicidal effect on N: redroot pigweed (criteria 0-5) (redroot pigweed): 5 (Herbicidal rate of 90% or more (almost completely withered))
